Results from US20230043863A1, “HETEROAROMATIC DERIVATIVES FOR USE AS REGULATOR, PREPARATION METHOD THEREFOR AND USE THEREOF” (JIANGSU HANSOH PHARMACEUTICAL GROUP CO., LTD., priority 2018, published 2023).

Legend:
JAK2 = JAK2 (Homo sapiens, UniProt O60674); assay: JAK kinase activity inhibition, TR-FRET (JAK2); assay type: biochemical; conditions: TR-FRET kinase assay
Procedure, shortened: (§1)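 Recombinant kinase at 0.1-20 nM, peptide substrate, ATP; room temperature, 0.5-5 h; EDTA stop, labeled-antibody TR-FRET readout; IC50 by curve fit.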

JAK1 = JAK1 (Homo sapiens, UniProt P23458); assay: JAK kinase activity inhibition, TR-FRET (JAK1); assay type: biochemical; conditions: TR-FRET kinase assay
Procedure, shortened: as §1

JAK3 = target: T1, JAK3 (Homo sapiens, UniProt P52333); assay: JAK kinase activity inhibition, TR-FRET (JAK3); assay type: biochemical; conditions: TR-FRET kinase assay
T1 sequence (P52333 1-1124): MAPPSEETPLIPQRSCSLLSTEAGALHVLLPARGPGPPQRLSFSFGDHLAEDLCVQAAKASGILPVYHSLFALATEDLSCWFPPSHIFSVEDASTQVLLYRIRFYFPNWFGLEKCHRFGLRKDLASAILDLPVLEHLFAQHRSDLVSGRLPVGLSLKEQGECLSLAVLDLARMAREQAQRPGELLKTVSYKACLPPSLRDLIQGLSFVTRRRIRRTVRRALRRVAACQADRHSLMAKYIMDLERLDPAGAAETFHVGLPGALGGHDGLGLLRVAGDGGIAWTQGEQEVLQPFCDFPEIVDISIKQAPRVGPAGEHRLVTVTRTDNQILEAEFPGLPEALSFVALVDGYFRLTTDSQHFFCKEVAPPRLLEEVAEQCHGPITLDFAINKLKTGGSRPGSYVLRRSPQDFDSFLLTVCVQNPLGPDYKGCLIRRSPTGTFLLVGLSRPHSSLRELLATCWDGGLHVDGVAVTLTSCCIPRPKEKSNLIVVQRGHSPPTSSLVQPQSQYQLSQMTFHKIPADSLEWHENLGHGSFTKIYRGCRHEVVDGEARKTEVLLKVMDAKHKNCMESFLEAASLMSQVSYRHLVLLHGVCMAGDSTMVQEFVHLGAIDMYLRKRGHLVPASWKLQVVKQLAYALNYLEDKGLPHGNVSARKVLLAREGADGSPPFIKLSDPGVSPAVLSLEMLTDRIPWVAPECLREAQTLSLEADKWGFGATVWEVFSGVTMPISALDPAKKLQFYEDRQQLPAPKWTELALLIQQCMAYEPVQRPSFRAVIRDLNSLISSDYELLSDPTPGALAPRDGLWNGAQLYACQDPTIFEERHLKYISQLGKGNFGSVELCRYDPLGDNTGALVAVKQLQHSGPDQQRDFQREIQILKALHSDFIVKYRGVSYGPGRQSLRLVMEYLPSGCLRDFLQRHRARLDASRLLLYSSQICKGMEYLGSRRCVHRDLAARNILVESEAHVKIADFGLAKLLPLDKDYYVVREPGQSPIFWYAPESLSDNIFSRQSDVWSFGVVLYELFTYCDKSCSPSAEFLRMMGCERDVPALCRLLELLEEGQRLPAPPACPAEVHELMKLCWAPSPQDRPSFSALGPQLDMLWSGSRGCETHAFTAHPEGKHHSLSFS
Procedure, shortened: as §1

TYK2 = TYK2 (Homo sapiens, UniProt P29597); assay: JAK kinase activity inhibition, TR-FRET (TYK2); assay type: biochemical; conditions: TR-FRET kinase assay
Procedure, shortened: as §1

[1] = tested on: JAK-STAT signal pathway of U266 cells; assay: Inhibition of cellular JAK-STAT signal pathway (STAT3 phosphorylation) in U266 cells; assay type: cell-based, human; conditions: Homo sapiens, U-266, INF-a 1000 U/mL stimulation
Procedure, shortened: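 U266 cells (100-300 K/well) preincubated 2 h at room temperature with serially diluted compound, then stimulated 15 min with IFN-α at 1000 U/mL final. After lysis, STAT3 phosphorylation read by LANCE Ultra TR-FRET (Eu antibody 0.5 nM, ULight antibody 5 nM, overnight) at 665 nm; IC50 from 4-parameter fit of inhibition versus DMSO and negative controls.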

JAK1, sequence (P23458 whole entry): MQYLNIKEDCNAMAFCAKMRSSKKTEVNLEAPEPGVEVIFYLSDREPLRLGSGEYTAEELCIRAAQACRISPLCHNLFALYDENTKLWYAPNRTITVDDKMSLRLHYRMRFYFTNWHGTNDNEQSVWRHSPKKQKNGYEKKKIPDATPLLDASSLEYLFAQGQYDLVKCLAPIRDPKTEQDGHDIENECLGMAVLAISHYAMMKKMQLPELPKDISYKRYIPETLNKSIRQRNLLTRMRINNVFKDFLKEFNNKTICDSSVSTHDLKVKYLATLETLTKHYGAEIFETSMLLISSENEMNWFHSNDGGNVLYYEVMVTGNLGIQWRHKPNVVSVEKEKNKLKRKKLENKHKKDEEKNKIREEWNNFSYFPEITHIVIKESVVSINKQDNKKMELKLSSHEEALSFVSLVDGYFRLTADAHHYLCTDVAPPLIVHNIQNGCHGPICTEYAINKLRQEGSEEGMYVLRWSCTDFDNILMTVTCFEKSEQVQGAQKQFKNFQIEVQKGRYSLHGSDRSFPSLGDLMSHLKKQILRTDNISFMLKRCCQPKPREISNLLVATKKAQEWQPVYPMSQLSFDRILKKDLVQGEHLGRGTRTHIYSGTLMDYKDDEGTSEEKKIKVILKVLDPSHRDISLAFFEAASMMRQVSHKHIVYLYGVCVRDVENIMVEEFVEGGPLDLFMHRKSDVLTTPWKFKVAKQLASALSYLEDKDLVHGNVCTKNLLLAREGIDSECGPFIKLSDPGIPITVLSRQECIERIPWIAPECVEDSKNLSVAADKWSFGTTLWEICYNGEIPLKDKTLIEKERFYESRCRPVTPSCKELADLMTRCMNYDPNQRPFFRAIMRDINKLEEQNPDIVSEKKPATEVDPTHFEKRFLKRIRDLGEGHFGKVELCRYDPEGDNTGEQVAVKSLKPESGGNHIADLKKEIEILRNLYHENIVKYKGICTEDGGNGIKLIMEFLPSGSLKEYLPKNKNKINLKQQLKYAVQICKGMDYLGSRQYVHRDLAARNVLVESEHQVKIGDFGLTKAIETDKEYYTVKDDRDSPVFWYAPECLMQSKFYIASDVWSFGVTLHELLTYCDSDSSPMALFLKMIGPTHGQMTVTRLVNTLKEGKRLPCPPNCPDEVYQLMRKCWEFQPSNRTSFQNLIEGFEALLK
TYK2, sequence (P29597 whole entry): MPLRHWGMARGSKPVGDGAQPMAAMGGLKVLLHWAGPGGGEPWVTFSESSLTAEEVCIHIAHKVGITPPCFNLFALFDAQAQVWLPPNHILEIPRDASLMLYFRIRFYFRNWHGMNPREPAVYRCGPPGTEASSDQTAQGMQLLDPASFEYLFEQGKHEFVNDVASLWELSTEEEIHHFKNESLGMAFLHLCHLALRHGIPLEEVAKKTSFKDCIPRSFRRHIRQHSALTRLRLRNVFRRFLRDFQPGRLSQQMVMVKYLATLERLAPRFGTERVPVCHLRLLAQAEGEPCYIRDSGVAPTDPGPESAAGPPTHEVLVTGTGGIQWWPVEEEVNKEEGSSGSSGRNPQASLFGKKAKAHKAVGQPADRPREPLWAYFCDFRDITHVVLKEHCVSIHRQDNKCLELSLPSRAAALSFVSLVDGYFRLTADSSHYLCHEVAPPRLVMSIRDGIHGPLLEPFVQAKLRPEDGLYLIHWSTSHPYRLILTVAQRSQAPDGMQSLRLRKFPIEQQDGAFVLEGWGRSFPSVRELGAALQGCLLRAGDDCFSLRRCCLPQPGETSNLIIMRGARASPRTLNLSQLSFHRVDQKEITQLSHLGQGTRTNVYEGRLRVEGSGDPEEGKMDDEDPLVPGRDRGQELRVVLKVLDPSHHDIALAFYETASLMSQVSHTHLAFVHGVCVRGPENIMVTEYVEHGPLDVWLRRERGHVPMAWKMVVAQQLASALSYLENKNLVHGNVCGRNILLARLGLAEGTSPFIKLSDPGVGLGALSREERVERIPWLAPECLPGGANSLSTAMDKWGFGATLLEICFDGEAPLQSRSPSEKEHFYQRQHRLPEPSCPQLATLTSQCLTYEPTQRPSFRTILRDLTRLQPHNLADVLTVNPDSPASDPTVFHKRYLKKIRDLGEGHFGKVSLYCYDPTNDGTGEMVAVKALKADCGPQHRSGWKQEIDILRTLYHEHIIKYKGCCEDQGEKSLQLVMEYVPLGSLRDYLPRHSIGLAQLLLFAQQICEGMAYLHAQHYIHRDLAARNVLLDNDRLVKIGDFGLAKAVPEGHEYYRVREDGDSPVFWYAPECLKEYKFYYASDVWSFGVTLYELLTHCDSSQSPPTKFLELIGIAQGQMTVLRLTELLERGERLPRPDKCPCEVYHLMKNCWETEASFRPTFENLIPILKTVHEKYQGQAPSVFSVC
JAK2, sequence (O60674 whole entry): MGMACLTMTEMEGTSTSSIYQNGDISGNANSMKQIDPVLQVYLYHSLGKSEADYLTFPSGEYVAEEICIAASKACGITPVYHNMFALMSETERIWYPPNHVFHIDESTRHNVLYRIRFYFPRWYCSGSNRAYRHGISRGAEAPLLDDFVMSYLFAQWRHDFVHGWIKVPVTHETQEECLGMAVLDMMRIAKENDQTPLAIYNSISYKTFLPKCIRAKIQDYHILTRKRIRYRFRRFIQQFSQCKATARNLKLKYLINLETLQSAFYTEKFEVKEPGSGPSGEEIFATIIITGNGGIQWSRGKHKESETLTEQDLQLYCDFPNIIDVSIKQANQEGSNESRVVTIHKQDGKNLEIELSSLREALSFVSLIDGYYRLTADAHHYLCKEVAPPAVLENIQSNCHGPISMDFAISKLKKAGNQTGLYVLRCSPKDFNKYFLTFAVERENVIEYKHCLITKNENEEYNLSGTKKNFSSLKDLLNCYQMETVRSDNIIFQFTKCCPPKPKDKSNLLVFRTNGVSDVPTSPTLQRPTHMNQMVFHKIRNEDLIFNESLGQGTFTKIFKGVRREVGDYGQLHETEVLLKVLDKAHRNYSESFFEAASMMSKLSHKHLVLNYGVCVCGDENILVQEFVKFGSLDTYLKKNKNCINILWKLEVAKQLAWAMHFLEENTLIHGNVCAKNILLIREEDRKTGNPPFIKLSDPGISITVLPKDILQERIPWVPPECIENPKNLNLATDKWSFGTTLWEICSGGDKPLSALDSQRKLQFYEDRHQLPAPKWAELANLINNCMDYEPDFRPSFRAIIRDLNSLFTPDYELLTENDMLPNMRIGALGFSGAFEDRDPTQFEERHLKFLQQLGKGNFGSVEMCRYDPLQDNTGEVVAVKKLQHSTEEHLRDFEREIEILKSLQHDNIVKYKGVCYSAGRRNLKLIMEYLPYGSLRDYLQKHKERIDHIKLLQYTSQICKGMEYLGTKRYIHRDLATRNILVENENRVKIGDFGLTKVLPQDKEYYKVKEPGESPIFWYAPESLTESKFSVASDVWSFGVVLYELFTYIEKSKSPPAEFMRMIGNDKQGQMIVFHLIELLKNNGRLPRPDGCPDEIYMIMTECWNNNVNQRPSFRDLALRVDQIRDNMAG

Structure (SMILES) | IC50 (JAK2) | IC50 (JAK1) | IC50 (JAK3) | IC50 (TYK2) | IC50 [1]
Cc1cc(Nc2nc(N[C@@H]3C[C@H]4CC[C@@H](C3)N4CCC#N)nc3cc(Cl)ccc23)n[nH]1 [Embodiment 171, 3-((3-exo)-3-((7-chloro-4-((5-methyl-1H-pyrazol-3-yl)amino)quinazolin-2-yl)amino)-8-azabicyclo[3.2.1]oct-8-yl)propionitrile] | 0.67 nM | 0.85 nM | 23.3 nM | 0.6 nM | 0.85 nM
Cc1cnc(Nc2cc3ncccc3c(N[C@@H]3C[C@H]4CC[C@@H](C3)N4CCC#N)n2)s1 [Embodiment 1, 3-((3-exo)-3-((7-((5-methylthioazol-2-yl)amino)-1,6-diazanaphthalen-5-yl)amino)-8-azabicyclo[3.2.1]oct-8-yl)propionitrile] | 0.69 nM | 0.34 nM | 2.68 nM | 0.55 nM | 0.15 nM
Cc1cc(Nc2nc(N[C@@H]3C[C@H]4CCC[C@@H](C3)N4S(=O)(=O)N3CC(C#N)C3)nc3sccc23)n[nH]1 [Embodiment 238] | 0.44 nM | 0.03 nM | 0.71 nM | 0.12 nM | 1.15 nM
Cc1cc(Nc2nc(N[C@@H]3C[C@H]4CC[C@@H](C3)N4CCC#N)nc3ccsc23)n[nH]1 [Embodiment 60, 3-((3-exo)-3-((4-((5-methyl-1H-pyrazol-3-yl)amino)thieno[3,2-d]pyrimidin-2-yl)amino)-8-azabicyclo[3.2.1]oct-8-yl)propionitrile] | – | 0.12 nM | – | 0.46 nM | 2.9 nM
Cc1cc(Nc2nc(N[C@@H]3C[C@H]4CC[C@@H](C3)N4S(=O)(=O)N3CC(C#N)C3)nc3cc(Cl)ccc23)n[nH]1 [Embodiment 214] | 0.82 nM | 0.35 nM | 133 nM | 0.455 nM | 17.7 nM
Cc1cc(Nc2nc(N(C)[C@@H]3C[C@H]4CCC[C@@H](C3)N4C(=O)CN3CCN(C)CC3)nc3sccc23)n[nH]1 [Embodiment 257, 1-((3-exo)-3-(methyl(4-((5-methyl-1H-pyrazol-3-yl)amino)thieno[2,3-d]pyrimidin-2-yl)amino)-9-azabicyclo[3.3.1]non-9-yl)-2-(4-methylpiperazin-1-yl)ethane-1-one] | 0.83 nM | 0.07 nM | 19.9 nM | 0.2 nM | 1.45 nM
Cc1cc(Nc2nc(N[C@@H]3C[C@H]4CC[C@@H](C3)N4S(=O)(=O)N3CC(C#N)C3)nc3sccc23)n[nH]1 [Embodiment 237, 1-(((3-exo)-3-((4-((5-methyl-1H-pyrazol-3-yl)amino)thieno[2,3-d]pyrimidin-2-yl)amino)-8-azabicyclo[3.2.1]oct-8-yl)sulfonyl)azetindin-3-formonitrile] | 0.79 nM | 0.07 nM | 3.62 nM | 0.32 nM | 0.56 nM
Cc1cc(Nc2nc(N[C@@H]3C[C@H]4CCC[C@@H](C3)N4CCC#N)nc3scnc23)n[nH]1 [Embodiment 278, 3-((3-exo)-3-((7-((5-methyl-1H-pyrazol-3-yl)amino)thiazolo[5,4-d]pyrimidin-5-yl)amino)-9-azabicyclo[3.3.1]non-9-yl)propionitrile] | 1.34 nM | 0.71 nM | 7.05 nM | 0.98 nM | 0.29 nM
Cc1cc(Nc2nc(N[C@@H]3C[C@H]4CC[C@@H](C3)N4S(=O)(=O)N3CC(C#N)C3)nc3ccccc23)n[nH]1 [Embodiment 213, 1-(((3-exo)-3-((4-((5-methyl-1H-pyrazol-3-yl)amino)quinazolin-2-yl)amino)-8-azabicyclo[3.2.1]oct-8-yl)sulfonyl)azetindin-3-formonitrile] | 0.3 nM | 0.2 nM | 12.6 nM | 0.46 nM | 11.1 nM
Cc1cc(Nc2nc(N[C@@H]3C[C@H]4CCC[C@@H](C3)N4C(=O)c3ccccn3)nc3sccc23)n[nH]1 [Embodiment 260, ((3-exo)-3-((4-((5-methyl-1H-pyrazol-3-yl)amino)thieno[2,3-d]pyrimidin-2-yl)amino)-9-azabicyclo[3.3.1]non-9-yl)(pyridin-2-yl)methanone] | 0.36 nM | 0.19 nM | 3.83 nM | 0.225 nM | 1.1 nM
COc1ccc2c(Nc3cc(C)[nH]n3)nc(N[C@@H]3C[C@H]4CC[C@@H](C3)N4CCC#N)nc2c1 [Embodiment 169, 3-((3-exo)-3-((7-methoxyl-4-((5-methyl-1H-pyrazol-3-yl)amino)quinazolin-2-yl)amino)-8-azabicyclo[3.2.1]oct-8-yl)propionitrile] | 1.07 nM | 0.63 nM | 28.8 nM | 0.5 nM | 9.32 nM
Cc1cc(Nc2nc(N[C@@H]3C[C@H]4CC[C@@H](C3)N4CCC#N)nc3sc(C)cc23)n[nH]1 [Embodiment 277, 3-((3-exo)-3-((6-methyl-4-((5-methyl-1H-pyrazol-3-yl)amino)thieno[2,3-d]pyrimidin-2-yl)amino)-8-azabicyclo[3.2.1]oct-8-yl)propionitrile] | 1.01 nM | 0.61 nM | 8.26 nM | 0.58 nM | 0.49 nM
Cc1cc(Nc2nc(N[C@@H]3C[C@H]4CC[C@@H](C3)N4CCC#N)nc3cc(Br)ccc23)n[nH]1 [Embodiment 170, 3-((3-exo)-3-((7-bromine-4-((5-methyl-1H-pyrazol-3-yl)amino)quinazolin-2-yl)amino)-8-azabicyclo[3.2.1]oct-8-yl)propionitrile] | – | 0.66 nM | – | 0.225 nM | 3.35 nM
CNCC(=O)N1[C@@H]2CCC[C@H]1C[C@H](Nc1nc(Nc3cc(C)[nH]n3)c3ccsc3n1)C2 [Embodiment 247, 1-((3-exo)-3-((4-((5-methyl-1H-pyrazol-3-yl)amino)thieno[2,3-d]pyrimidin-2-yl)amino)-9-azabicyclo[3.3.1]non-9-yl)-2-(methylamino)-ethane-1-one] | 0.73 nM | 0.1 nM | 2.4 nM | 0.12 nM | 2.27 nM
Cc1cc(Nc2nc(N[C@@H]3C[C@H]4CCC[C@@H](C3)N4C(=O)CN3CCOCC3)nc3sccc23)n[nH]1 [Embodiment 246, 1-((3-exo)-3-((4-((5-methyl-1H-pyrazol-3-yl)amino)thieno[2,3-d]pyrimidin-2-yl)amino)-9-azabicyclo[3.3.1]non-9-yl)-2-morpholinoethane-1-one] | 0.71 nM | 0.22 nM | 6.87 nM | 1.88 nM | 1 nM
